One data set has as its system A-549. As to the kind of experiment: Inhibition of cells growth by colorimetric (SRB) assay, A-549. Conditions: for GI50 / CC50: Homo sapiens, A549, 48 h; for GI50: read-out: GI50 A-549, SRB assay, 48 hours exposure; for CC50: read-out: LC50 A-549, SRB assay, 48 hours exposure; for TGI A-549: SRB assay, 48 hours exposure. The method in brief: (§1)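 Read-out is sulforhodamine B protein stain (OD 490 nm) after cold TCA fixation, following 48 h continuous exposure to samples spanning 10 to 10^−8 μg/ml.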
(In general: In SRB staining, fixed cells bind dye roughly in proportion to their protein.)

Data set [1] in a line: Inhibition of cells growth by colorimetric (SRB) assay, HMEC1. The note with it: human, HMEC1 cells, LC50 H-MEC-1, SRB assay, 48 hours exposure.
The test system of a further data set is HMEC1. The description is as above. The note with it: for GI50: Homo sapiens, HMEC-1, 48 h, read-out: GI50 H-MEC-1, SRB assay, 48 hours exposure; for TGI H-MEC-1: SRB assay, 48 hours exposure, in M (unit assumed).
The subject of the next data set is HT-29. Nature of the data set: Inhibition of cells growth by colorimetric (SRB) assay, HT-29. Conditions: for GI50 / CC50: Homo sapiens, HT-29, 48 h; for GI50: read-out: GI50 HT-29, SRB assay, 48 hours exposure; for CC50: read-out: LC50 HT-29, SRB assay, 48 hours exposure; for TGI HT-29: SRB assay, 48 hours exposure. In short, it runs like this: as §1

Consider four compounds from patent publication US7772241B2, “Variolin derivatives and their use as antitumor agents” (Pharma Mar S.A., priority 2001, dated 2010).

Structures are written as SMILES.

Usually GI50 stands for the concentration at which growth is held to half of that of the control. For `CSc1nccc(-c2c3c(N)ccnc3n3c(N)nccc23)n1` [Compound 92], in the data set with A-549, the GI50 worked out at 1.76 µM, the CC50 turned out to be 24.4 µM and the “TGI A-549” value is reported as 6.03E−06. This compound also had a CC50 at 48 h in data set [1] of 30.9 µM. Further, in the data set with HMEC1, the GI50 was found to be 0.782 µM and the “TGI H-MEC-1” value is reported as 3.09E−06. Besides, in the data set on HT-29, the GI50 was 2.04 µM, the CC50 is 30.9 µM and the “TGI HT-29” value stood at 3.09E−05.
Take `CSc1nccc(-c2c3c(OCc4ccccc4)ccnc3n3c(N)nccc23)n1` [Compound 94]: in the data set on A-549, the GI50 was 24.1 µM, the CC50 stood at 24.1 µM and the “TGI A-549” value was found to be 2.41E−05. The same compound had a CC50 at 48 h in data set [1] of 24.1 µM. Moreover, in the data set with HMEC1, the GI50 is 9.19 µM and the “TGI H-MEC-1” value is 1.97E−05. In the data set with HT-29, the GI50 was 24.1 µM, the CC50 amounted to 24.1 µM and the “TGI HT-29” value is 2.41E−05.
Consider `CS(=O)(=O)c1nccc(-c2c3c(OCc4ccccc4)ccnc3n3c(N)nccc23)n1` [Compound 99], for which, in the data set on A-549, the GI50 is 22.4 µM, the CC50 was 22.4 µM and the “TGI A-549” value amounted to 2.24E−05. Also, the CC50 at 48 h in data set [1] is 22.4 µM. In the data set on HMEC1, the GI50 came to 8.2 µM and the “TGI H-MEC-1” value worked out at 2.24E−05. In the data set on HT-29, the GI50 is 22.4 µM, the CC50 was found to be 22.4 µM and the “TGI HT-29” value was 2.24E−05.
`COc1nccc(-c2c3c(OCc4ccccc4)ccnc3n3c(N)nccc23)n1` [Compound 102]: in the data set on A-549, the GI50 was 25.1 µM, the CC50 was determined as 25.1 µM and the “TGI A-549” value came to 2.51E−05. The CC50 at 48 h in data set [1] was 19.7 µM. In the data set on HMEC1, the GI50 came out at 6 µM and the “TGI H-MEC-1” value is recorded as 1.09E−05. Also, in the data set with HT-29, the GI50 was found to be 25.1 µM, the CC50 turned out to be 25.1 µM and the “TGI HT-29” value is reported as 2.51E−05.
